Experimental data published in ChEMBL document CHEMBL5131517 (ACS Med Chem Lett, 2022).

Columns and labels:
[1] = target: T1, 5-hydroxytryptamine receptor 2B (Homo sapiens, UniProt P41595); assay: Agonist activity at human 5HT2B receptor stably expressed in Flp-In-T-REx-293 cells assessed as increase in Gq-mediated calcium flux by Fluo-4 direct dye based FLIPR Tetra assay; type: functional, cell-based; conditions: read-out: EC50
[2] = target: T1, 5-hydroxytryptamine receptor 2B; assay: Agonist activity at human 5HT2B receptor stably expressed in Flp-In-T-REx-293 cells assessed as maximal Gq-mediated calcium flux by Fluo-4 direct dye based FLIPR Tetra assay relative to control; type: functional, cell-based
[3] = target: T2, 5-hydroxytryptamine receptor 2A (Homo sapiens, UniProt P28223); assay: Agonist activity at human 5HT2A receptor stably expressed in Flp-In-T-REx-293 cells assessed as increase in Gq-mediated calcium flux by Fluo-4 direct dye based FLIPR Tetra assay; type: functional, cell-based
T2 sequence (P28223 whole entry): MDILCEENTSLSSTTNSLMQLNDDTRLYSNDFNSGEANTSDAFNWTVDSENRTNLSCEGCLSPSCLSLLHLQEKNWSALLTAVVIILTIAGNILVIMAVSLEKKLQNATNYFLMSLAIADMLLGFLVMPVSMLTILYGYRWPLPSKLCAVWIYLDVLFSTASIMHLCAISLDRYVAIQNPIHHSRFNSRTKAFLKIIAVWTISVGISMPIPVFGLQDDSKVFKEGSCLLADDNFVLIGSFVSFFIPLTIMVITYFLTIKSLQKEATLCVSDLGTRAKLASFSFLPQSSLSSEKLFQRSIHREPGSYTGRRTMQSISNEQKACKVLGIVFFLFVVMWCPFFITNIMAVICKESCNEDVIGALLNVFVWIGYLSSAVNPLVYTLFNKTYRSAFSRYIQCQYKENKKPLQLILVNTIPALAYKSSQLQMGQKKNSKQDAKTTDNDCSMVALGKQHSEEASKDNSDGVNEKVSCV

[4] = target: T3, 5-hydroxytryptamine receptor 2C (Homo sapiens, UniProt P28335); assay: Agonist activity at human 5HT2C receptor stably expressed in Flp-In-T-REx-293 cells assessed as increase in Gq-mediated calcium flux by Fluo-4 direct dye based FLIPR Tetra assay; type: functional, cell-based
T3 sequence (P28335 whole entry): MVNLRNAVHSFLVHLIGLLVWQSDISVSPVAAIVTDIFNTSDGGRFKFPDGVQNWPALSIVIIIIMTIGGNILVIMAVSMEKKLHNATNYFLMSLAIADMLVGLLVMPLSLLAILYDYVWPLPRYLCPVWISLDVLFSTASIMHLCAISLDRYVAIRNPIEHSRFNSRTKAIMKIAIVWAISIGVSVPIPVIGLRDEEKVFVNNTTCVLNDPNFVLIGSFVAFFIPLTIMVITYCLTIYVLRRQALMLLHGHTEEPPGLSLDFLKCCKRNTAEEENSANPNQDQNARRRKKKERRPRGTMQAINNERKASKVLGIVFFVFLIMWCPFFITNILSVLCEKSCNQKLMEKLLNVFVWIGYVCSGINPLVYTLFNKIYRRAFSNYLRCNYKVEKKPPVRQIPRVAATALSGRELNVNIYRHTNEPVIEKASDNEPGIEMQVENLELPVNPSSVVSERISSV

[5] = target: T4, 5-hydroxytryptamine receptor 2C (Homo sapiens) (UniProt P28335); assay: Agonist activity at human 5HT2C receptor stably expressed in Flp-In-T-REx-293 cells assessed as maximal Gq-mediated calcium flux by Fluo-4 direct dye based FLIPR Tetra assay relative to control; type: functional, cell-based; conditions: filed as agonist
T4 sequence (whole entry): T3 sequence (P28335 whole entry)

[6] = target: T2, 5-hydroxytryptamine receptor 2A; assay: Agonist activity at human 5HT2A receptor stably expressed in Flp-In-T-REx-293 cells assessed as maximal Gq-mediated calcium flux by Fluo-4 direct dye based FLIPR Tetra assay relative to control; type: functional, cell-based
[7] = Drug metabolism in BALB/c mouse liver microsome S9 fraction assessed as [M+16] metabolite formation prewarmed for 5 mins followed by NADPH addition measured over 1 hrs by LCMS analysis; type: ADME; conditions: microsomes, 1.083 h, time 65 min

T1 sequence (P41595 whole entry): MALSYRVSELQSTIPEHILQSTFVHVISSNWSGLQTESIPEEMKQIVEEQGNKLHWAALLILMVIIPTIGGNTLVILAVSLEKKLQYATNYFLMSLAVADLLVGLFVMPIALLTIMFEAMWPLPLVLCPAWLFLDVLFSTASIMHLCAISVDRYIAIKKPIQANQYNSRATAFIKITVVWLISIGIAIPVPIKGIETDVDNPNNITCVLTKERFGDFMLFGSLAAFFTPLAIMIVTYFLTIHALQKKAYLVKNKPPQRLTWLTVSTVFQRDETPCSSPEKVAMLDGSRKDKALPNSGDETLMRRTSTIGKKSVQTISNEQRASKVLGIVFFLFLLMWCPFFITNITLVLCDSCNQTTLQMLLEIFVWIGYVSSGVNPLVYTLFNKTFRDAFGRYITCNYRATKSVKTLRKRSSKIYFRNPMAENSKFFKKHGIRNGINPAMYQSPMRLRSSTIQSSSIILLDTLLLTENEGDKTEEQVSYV

Compound | EC50 [1] [nM] | Emax ([2]; filed as agonist) [%] | EC50 [3] [nM] | EC50 ([4]; read-out: EC50) [nM] | Emax [5] [%] | Emax ([6]; filed as agonist) [%] | Emax [6] [%] | Emax [2] [%] | Drug metabolism [7] | EC50 ([4]; read-out: pEC50 (converted)) [nM]
Cc1ccc(O)c(C2NCCc3c2[nH]c2ccc(Cl)cc32)c1 (stereo unspecified) | 4270 | 106 | – | – | – | – | – | – | – | –
COc1ccc(OC)c(C2NCCc3c2[nH]c2ccc(F)cc32)c1 (stereo unspecified) | 588 | 52.1 | > 10000 | 1600 | 55.3 | – | – | – | – | –
Oc1cc(Br)ccc1C1NCCc2c1[nH]c1ccc(Cl)cc21 (stereo unspecified) | 204 | 106 | 537 | 794 | 107 | 94.5 | – | – | – | –
COc1ccc(OC)c(C2NCCc3c2[nH]c2ccc(Cl)cc32)c1 (stereo unspecified) | 416 | – | 1820 | 2690 | 42.4 | – | 14.4 | 32 | – | –
COc1ccc(C2NCCc3c2[nH]c2ccc(F)cc32)c(OC)c1 (stereo unspecified) | 98 | 91.3 | 167 | 159 | 100 | 45.6 | – | – | – | –
RAUWOLFIA SERPENTINA | – | – | – | – | – | – | – | – | Metabolite_Detected | –
Cc1ccc(C2NCCc3c2[nH]c2ccc(Cl)cc32)c(C)c1 (stereo unspecified) | 977 | 89.4 | 562 | 407 | 99.2 | 69.8 | – | – | – | –
Oc1cc(Cl)ccc1C1NCCc2c1[nH]c1ccc(Cl)cc21 (stereo unspecified) | 25 | 109 | 52 | 47 | 102 | 98.5 | – | – | – | –
Oc1cc(Cl)ccc1C1NCCc2c1[nH]c1ccc(F)cc21 (stereo unspecified) | 128 | 105 | 229 | 209 | 107 | 73.2 | – | – | – | –
Oc1c(Cl)cccc1C1NCCc2c1[nH]c1ccc(F)cc21 (stereo unspecified) | 88 | 96.2 | 273 | 78 | 99.2 | 65.3 | – | – | – | –
Oc1cc(Br)ccc1C1NCCc2c1[nH]c1ccc(F)cc21 (stereo unspecified) | 59 | 112 | 147 | 95 | 111 | 98 | – | – | – | –
Oc1ccc(O)c(C2NCCc3c2[nH]c2ccc(F)cc32)c1 (stereo unspecified) | 25 | 102 | 72 | 42 | 120 | 95.2 | – | – | – | –
Cc1ccc(O)c(C2NCCc3c2[nH]c2ccc(F)cc32)c1 (stereo unspecified) | 316 | 115 | 1230 | 446 | 99.2 | – | 36.8 | – | – | –
COc1ccc(C2NCCc3c2[nH]c2ccc(Cl)cc32)cc1OC (stereo unspecified) | 34 | 102 | 81 | 123 | 99.3 | 96 | – | – | – | –
Cc1ccc(C2NCCc3c2[nH]c2ccc(F)cc32)c(C)c1 (stereo unspecified) | 537 | 107 | 363 | 159 | 104 | 47.8 | – | – | – | –
Oc1c(Cl)cccc1C1NCCc2c1[nH]c1ccc(Cl)cc21 (stereo unspecified) | 106 | 95.9 | 336 | 176 | 94 | 70.1 | – | – | – | –
Oc1ccc(Br)cc1C1NCCc2c1[nH]c1ccc(Cl)cc21 (stereo unspecified) | 457 | 111 | 812 | 1320 | 95.2 | 79.7 | – | – | – | –
Oc1ccccc1C1NCCc2c1[nH]c1ccc(F)cc21 (stereo unspecified) | – | – | 26 | 4.3 | 100 | 96.2 | – | – | – | –
COc1ccccc1C1NCCc2c1[nH]c1ccc(Cl)cc21 (stereo unspecified) | – | – | 207 | 284 | 82.9 | 41.6 | – | – | – | –

Compound | EC50 [1] [nM] | Emax ([2]; filed as agonist) [%] | EC50 [3] [nM] | EC50 ([4]; read-out: EC50) [nM] | Emax [5] [%] | Emax ([6]; filed as agonist) [%] | Emax [6] [%] | Emax [2] [%] | Drug metabolism [7] | EC50 ([4]; read-out: pEC50 (converted)) [nM]
Oc1ccc2[nH]c3c(c2c1)CCNC3c1cncnc1 (stereo unspecified) | – | – | 800 | – | 83.3 | 89.3 | – | – | – | 2950
COc1ccccc1C1NCCc2c1[nH]c1ccc(F)cc21 (stereo unspecified) | – | – | 126 | 75.4 | 94.3 | 43.1 | – | – | – | –
Oc1ccc2[nH]c3c(c2c1)CCNC3c1ccccc1F (stereo unspecified) | – | – | 23 | 13.2 | 102 | 91.4 | – | – | – | –
Cc1ccc(C2NCCc3c2[nH]c2ccc(Cl)cc32)cc1 (stereo unspecified) | – | – | 303 | 62.5 | 97.2 | 94.1 | – | – | – | –
Oc1ccc(Br)cc1C1NCCc2c1[nH]c1ccc(F)cc21 (stereo unspecified) | 338 | 111 | 1110 | 376 | 101 | 80.8 | – | – | – | –
Fc1ccc2[nH]c3c(c2c1)CCNC3c1ccccc1Cl (stereo unspecified) | – | – | 278 | 872 | 88.1 | – | 28.1 | – | – | –
COc1ccc2cc(C3NCCc4c3[nH]c3ccc(F)cc43)ccc2c1 (stereo unspecified) | – | – | 2820 | 3390 | 76.3 | – | 30.5 | – | – | –
Oc1ccc(Cl)cc1C1NCCc2c1[nH]c1ccc(Cl)cc21 (stereo unspecified) | 2000 | 111 | > 10000 | 3560 | 58.9 | – | – | – | – | –
Oc1ccc(C2NCCc3c2[nH]c2ccc(Cl)cc32)c(O)c1 (stereo unspecified) | – | – | 1.5 | 1.9 | 102 | 91.2 | – | – | – | –
Clc1ccc2[nH]c3c(c2c1)CCNC3c1ccc(Cl)s1 (stereo unspecified) | – | – | 177 | 44 | 117 | 100 | – | – | – | –
COc1ccc(C2NCCc3c2[nH]c2ccc(F)cc32)cc1OC (stereo unspecified) | 102 | 89.8 | 254 | 152 | 103 | 83.2 | – | – | – | –
Oc1ccc2[nH]c3c(c2c1)CCNC3Cc1ccccc1 (stereo unspecified) | – | – | 288 | 481 | 100 | 59.2 | – | – | – | –
Oc1cccc(C2NCCc3c2[nH]c2ccc(Cl)cc32)c1 (stereo unspecified) | – | – | 3300 | 688 | 67.4 | 49.1 | – | – | – | –
Fc1ccc2[nH]c3c(c2c1)CCNC3c1cccs1 (stereo unspecified) | – | – | 409 | 147 | 102 | – | 36.4 | – | – | –
CCC1NCCc2c1[nH]c1ccc(F)cc21 (stereo unspecified) | – | – | 597 | 200 | 96.2 | 75.4 | – | – | – | –
Clc1ccc2[nH]c3c(c2c1)CCNC3c1cccs1 (stereo unspecified) | – | – | 724 | 602 | 48.6 | – | 23.7 | – | – | –
Cc1cc(C2NCCc3c2[nH]c2ccc(Cl)cc32)sc1Br (stereo unspecified) | – | – | 776 | 173 | 118 | 97.1 | – | – | – | –
Clc1ccc2[nH]c3c(c2c1)CCNC3C1CCCCC1 (stereo unspecified) | – | – | 295 | 95.5 | 98.5 | 59.9 | – | – | – | –
Oc1ccc(C2NCCc3c2[nH]c2ccc(Cl)cc32)cc1 (stereo unspecified) | – | – | 93.8 | 105 | 99.4 | 103 | – | – | – | –
